Legend:
[1] = In vitro ROS scavenging assay (SIN-1, esterase, DCFH-DA); settings: 40 µM, SIN-1-generated ROS
Protocol: DCFH-DA, esterase, and SIN-1 were used to measure the scavenging activity of in vitro ROS generated by SIN-1. DCFH-DA reacts with esterase to generate DCFH, which in turn, reacts with the in vitro ROS generated by SIN-1 to produce DCF. To evaluate the in vitro ROS scavenging effects of the (Z)-BPT derivatives, a concentration of 40 µM was used. […] Three derivatives, 2, 3, and 14, exerted strong scavenging abilities against both intracellular ROS and in vitro ROS.
The ROS scavenging abilities of (Z)-BPT derivatives 1–14 and Trolox were assessed in accordance with methods previously reported by Lebel and Bondy. Briefly, 50 mM phosphate buffer (pH 7.4) was dissolved with esterase (6 units/mL) and 1.25 mM DCFH-DA (2′,7′-dichlorodihydrofluorescein diacetate) from Molecular Probes (Eugene, OR, USA), maintained at 37 °C for 30 min, and kept on ice in the dark until use. […] Using a microplate reader (Berthold Advances GmbH & Co., Bad Wildbad, Germany), the fluorescence intensities of 2′,7′-dichlorofluorescein (DCF or oxidized DCFH) were examined at excitation and emission wavelengths of 485 nm and 535 nm, respectively. […]
Figure 11 The scavenging effects of (Z)-BPT derivatives 1–14 on (A) intracellular ROS and (B) in vitro ROS. ROS levels were assessed using an assay with SIN-1 (an ROS generator) and DCFH-DA (an ROS-sensitive fluorescence probe). […]

[2] = ABTS cation radical scavenging assay; settings: 100 µM, 2 min in the dark
Excerpt: In addition, it has been reported that antioxidants that scavenge radicals may inhibit excess melanogenesis, because melanogenesis can be triggered by various radicals. Therefore, the 2,2′-azino-bis(3-ethylbenzothiazoline-6-sulfonic acid) (ABTS) cation radical scavenging abilities of 14 (Z)-BPT derivatives were studied using Trolox as a positive control. The ABTS cation radical is formed by transferring one electron of ABTS to K2S2O8 (potassium persulfate). To obtain an ABTS cation radical solution, a 7.4 mM ABTS solution was mixed with 2.6 mM potassium persulfate and kept in the dark at room temperature for 24 h. After adjusting the absorbance of the ABTS cation radical solution to 0.700 ± 0.03 at 732 nm, the ABTS cation radical solution was mixed with test samples (1–14 and Trolox) to a final concentration of 100 µM and kept for 2 min in the dark. The radical scavenging effects were assessed based on the absorbance measured at 732 nm.
The antioxidant properties of (Z)-BPT derivatives 1–14 were assessed using the ABTS cation-free radical scavenging assay, as previously described. […] Then, methanol was used to dilute the ABTS cation-free radical solution to an absorbance of 0.70 ± 0.02 at 734 nm. […] The absorbance of each well was measured at 734 nm using a VersaMax ™ microplate reader (Molecular Devices, Sunnyvale, CA, USA). […]

**Q.** For `Cc1c(C)c2c(c(C)c1O)CCC(C)(C(=O)O)O2` (centres unmarked) [Trolox], which “in vitro ROS scavenging activity” value [1] is on record?
**A.** significantly decreased the enhanced ROS levels

**Q.** What about the “ABTS cation radical scavenging (inhibition)” value [2] of the same compound?
**A.** 81%
